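Cells were grown in 96-well plates and exposed to each compound for 48 hours at five concentrations; endpoints were interpolated linearly between bracketing concentrations, or set to the highest concentration if not reached. Abbreviation: GI50, concentration required for 50% inhibition of growth.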 Activity calls are given as the source filed them. No stated cut-off is given here; in the data, active = GI50 up to about 1.1 µM and inactive = higher.
Experiments:
Assay in all cases: NCI tumour cell line growth inhibition, 48 h
UO-31 = test system: UO-31
SK-MEL-2 = test system: SK-MEL-2
HOP-92 = test system: HOP-92
OVCAR-8 = test system: OVCAR-8
SW-620 = test system: SW-620
CAKI-1 = test system: CAKI-1
SK-MEL-28 = test system: SK-MEL-28
HT-29 = test system: HT-29
KM12 = test system: KM12
SK-OV-3 = test system: SK-OV-3
MCF7 = test system: MCF7
DU-145 = test system: DU-145
Malme-3M = test system: Malme-3M
A498 = test system: A498
OVCAR-3 = test system: OVCAR-3
M14 = test system: M14
CCRF-CEM = test system: CCRF-CEM
OVCAR-4 = test system: OVCAR-4
ACHN = test system: ACHN
HCT-116 = test system: HCT-116
EKVX = test system: EKVX
HL-60 = test system: HL-60
UACC-62 = test system: UACC-62
K562 = test system: K562
NCI-H226 = test system: NCI-H226
COLO 205 = test system: COLO 205
A549 = test system: A549
SF-295 = test system: SF-295
RPMI-8226 = test system: RPMI-8226
NCI-H23 = test system: NCI-H23
SN12C = test system: SN12C
786-0 = test system: 786-0
T47D = test system: T47D
U-251 = test system: U-251
NCI-H522 = test system: NCI-H522
NCI/ADR-RES = test system: NCI/ADR-RES
LOX IMVI = test system: LOX IMVI
MOLT-4 = test system: MOLT-4
HOP-62 = test system: HOP-62
RXF 393 = test system: RXF 393
SNB-19 = test system: SNB-19
TK-10 = test system: TK-10
SK-MEL-5 = test system: SK-MEL-5
HCT-15 = test system: HCT-15
MDA-N = test system: MDA-N
IGROV-1 = test system: IGROV-1
HCC 2998 = test system: HCC 2998
MDA-MB-435 = test system: MDA-MB-435
PC-3 = test system: PC-3
SF-539 = test system: SF-539
UACC-257 = test system: UACC-257
SNB-75 = test system: SNB-75

CNc1ncnc2c1nnn2C
GI50 (UO-31): > 100 µM (inactive)
GI50 (SK-MEL-2): > 100 µM (inactive)
GI50 (HOP-92): > 100 µM (inactive)
GI50 (OVCAR-8): > 100 µM (inactive)
GI50 (SW-620): > 100 µM (inactive)
GI50 (CAKI-1): > 100 µM (inactive)
GI50 (SK-MEL-28): > 100 µM (inactive)
GI50 (HT-29): > 100 µM (inactive)
GI50 (KM12): > 100 µM (inactive)
GI50 (SK-OV-3): > 100 µM (inactive)
GI50 (MCF7): > 100 µM (inactive)
GI50 (DU-145): > 100 µM (inactive)
GI50 (Malme-3M): > 100 µM (inactive)
GI50 (A498): > 100 µM (inactive)
GI50 (OVCAR-3): > 100 µM (inactive)
GI50 (M14): > 100 µM (inactive)
GI50 (CCRF-CEM): > 100 µM (inactive)
GI50 (OVCAR-4): > 100 µM (inactive)
GI50 (ACHN): > 100 µM (inactive)
GI50 (HCT-116): > 100 µM (inactive)
GI50 (EKVX): > 100 µM (inactive)
GI50 (HL-60): > 100 µM (inactive)
GI50 (UACC-62): > 100 µM (inactive)
GI50 (K562): > 100 µM (inactive)
GI50 (NCI-H226): > 100 µM (inactive)
GI50 (COLO 205): > 100 µM (inactive)
GI50 (A549): > 100 µM (inactive)
GI50 (SF-295): > 100 µM (inactive)
GI50 (RPMI-8226): > 100 µM (inactive)
GI50 (NCI-H23): > 100 µM (inactive)
GI50 (SN12C): > 100 µM (inactive)
GI50 (786-0): > 100 µM (inactive)
GI50 (T47D): > 100 µM (inactive)
GI50 (U-251): > 100 µM (inactive)
GI50 (NCI-H522): > 100 µM (inactive)
GI50 (NCI/ADR-RES): > 100 µM (inactive)
GI50 (LOX IMVI): > 100 µM (inactive)
GI50 (MOLT-4): > 100 µM (inactive)
GI50 (HOP-62): > 100 µM (inactive)
GI50 (RXF 393): > 100 µM (inactive)
GI50 (SNB-19): > 100 µM (inactive)
GI50 (TK-10): > 100 µM (inactive)
GI50 (SK-MEL-5): > 100 µM (inactive)
GI50 (HCT-15): > 100 µM
GI50 (MDA-N): > 100 µM (inactive)
GI50 (IGROV-1): > 100 µM (inactive)
GI50 (HCC 2998): > 100 µM (inactive)
GI50 (MDA-MB-435): > 100 µM (inactive)
GI50 (PC-3): > 100 µM (inactive)
GI50 (SF-539): > 100 µM (inactive)
GI50 (UACC-257): > 100 µM (inactive)
GI50 (SNB-75): > 100 µM (inactive)
